{
  "source": "ChEMBL document CHEMBL2203234",
  "about": "“Optimisation of imidazole compounds as selective TAAR1 agonists: discovery of RO5073012” (Bioorg Med Chem Lett, 2012)",
  "key": {"[1]": {"molecular_target": "C-X-C chemokine receptor type 4 (Homo sapiens) (UniProt P61073)", "assay": "Inhibition of human CXCR4 receptor at 10 uM by CEREP assay"}, "[2]": {"molecular_target": "C-C chemokine receptor type 1 (Homo sapiens) (UniProt P32246)", "sequence (P32246 whole entry)": "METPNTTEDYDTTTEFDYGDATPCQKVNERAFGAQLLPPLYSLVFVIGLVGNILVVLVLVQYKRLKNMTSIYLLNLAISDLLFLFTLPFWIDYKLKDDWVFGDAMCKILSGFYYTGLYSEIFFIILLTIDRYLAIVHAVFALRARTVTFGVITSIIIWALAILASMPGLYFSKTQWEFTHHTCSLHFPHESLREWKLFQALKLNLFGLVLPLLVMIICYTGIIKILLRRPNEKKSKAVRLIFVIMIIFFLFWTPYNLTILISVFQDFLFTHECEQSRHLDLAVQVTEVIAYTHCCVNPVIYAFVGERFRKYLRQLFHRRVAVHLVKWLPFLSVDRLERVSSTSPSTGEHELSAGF", "assay": "Inhibition of human CCR1 receptor at 10 uM by CEREP assay"}, "[3]": {"molecular_target": "Histamine H1 receptor (Homo sapiens) (UniProt P35367)", "assay": "Inhibition of human H1 receptor at 10 uM by CEREP assay"}, "[4]": {"organism": "Homo sapiens", "assay": "Inhibition of human I2 receptor at 10 uM by CEREP assay"}, "[5]": {"molecular_target": "Motilin receptor (Homo sapiens) (UniProt O43193)", "sequence (O43193 whole entry)": "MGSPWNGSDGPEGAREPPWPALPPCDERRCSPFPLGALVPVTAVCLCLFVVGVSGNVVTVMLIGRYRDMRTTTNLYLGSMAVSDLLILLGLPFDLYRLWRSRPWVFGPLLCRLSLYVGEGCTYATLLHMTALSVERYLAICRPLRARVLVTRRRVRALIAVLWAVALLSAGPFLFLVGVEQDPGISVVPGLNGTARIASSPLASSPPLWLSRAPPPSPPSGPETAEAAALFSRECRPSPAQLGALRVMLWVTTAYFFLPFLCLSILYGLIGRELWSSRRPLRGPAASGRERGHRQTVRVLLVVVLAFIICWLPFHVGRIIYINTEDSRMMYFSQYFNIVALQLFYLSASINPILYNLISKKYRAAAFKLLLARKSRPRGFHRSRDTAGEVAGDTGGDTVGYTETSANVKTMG", "assay": "Inhibition of human Motilin receptor at 10 uM by CEREP assay"}, "[6]": {"molecular_target": "Substance-K receptor (Homo sapiens) (UniProt P21452)", "sequence (P21452 whole entry)": "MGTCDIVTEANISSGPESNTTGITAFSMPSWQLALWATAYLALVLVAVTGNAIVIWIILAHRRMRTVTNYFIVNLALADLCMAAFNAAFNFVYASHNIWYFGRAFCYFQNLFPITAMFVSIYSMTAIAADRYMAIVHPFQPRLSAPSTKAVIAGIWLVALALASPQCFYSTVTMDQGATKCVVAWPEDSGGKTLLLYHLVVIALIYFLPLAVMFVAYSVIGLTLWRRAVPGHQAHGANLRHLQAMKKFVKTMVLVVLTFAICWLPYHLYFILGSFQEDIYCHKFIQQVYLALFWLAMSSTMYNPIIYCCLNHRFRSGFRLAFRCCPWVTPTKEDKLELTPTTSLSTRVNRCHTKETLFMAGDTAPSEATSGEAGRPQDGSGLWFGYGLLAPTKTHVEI", "assay": "Inhibition of human Nk2 receptor at 10 uM by CEREP assay"}, "[7]": {"molecular_target": "Kappa-type opioid receptor (Homo sapiens) (UniProt P41145)", "sequence (P41145 whole entry)": "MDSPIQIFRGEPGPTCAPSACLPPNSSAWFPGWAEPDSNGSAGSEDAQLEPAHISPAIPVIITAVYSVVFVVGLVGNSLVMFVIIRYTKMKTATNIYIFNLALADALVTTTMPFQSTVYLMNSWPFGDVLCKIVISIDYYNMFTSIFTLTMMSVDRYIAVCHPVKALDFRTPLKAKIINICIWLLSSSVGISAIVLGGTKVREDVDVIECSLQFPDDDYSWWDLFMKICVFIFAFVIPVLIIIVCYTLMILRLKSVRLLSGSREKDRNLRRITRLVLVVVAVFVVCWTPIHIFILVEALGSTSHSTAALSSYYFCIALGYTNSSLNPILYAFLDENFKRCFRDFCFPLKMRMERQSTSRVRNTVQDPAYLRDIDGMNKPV", "assay": "Inhibition of KOP receptor at 10 uM by CEREP assay"}, "[8]": {"molecular_target": "Platelet-activating factor receptor (Homo sapiens) (UniProt P25105)", "sequence (P25105 whole entry)": "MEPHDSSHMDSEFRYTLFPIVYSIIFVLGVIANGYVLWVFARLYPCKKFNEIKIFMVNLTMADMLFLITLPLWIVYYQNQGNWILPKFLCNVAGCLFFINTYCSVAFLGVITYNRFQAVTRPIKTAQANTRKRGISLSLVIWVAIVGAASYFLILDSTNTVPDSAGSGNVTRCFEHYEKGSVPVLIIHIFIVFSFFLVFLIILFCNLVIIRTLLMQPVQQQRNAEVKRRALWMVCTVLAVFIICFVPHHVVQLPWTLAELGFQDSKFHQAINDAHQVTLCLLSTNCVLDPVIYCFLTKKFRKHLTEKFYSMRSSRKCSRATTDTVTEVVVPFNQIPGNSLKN", "assay": "Inhibition of human PAF receptor at 10 uM by CEREP assay"}, "[9]": {"molecular_target": "Thromboxane A2 receptor (Homo sapiens) (UniProt P21731)", "assay": "Inhibition of human TXA2/PGH2 receptor at 10 uM by CEREP assay"}, "[10]": {"assay": "Inhibition of P2Y receptor at 10 uM by CEREP assay"}, "[11]": {"molecular_target": "5-hydroxytryptamine receptor 1A (Homo sapiens) (UniProt P08908)", "assay": "Inhibition of human 5-HT1A receptor at 10 uM by CEREP assay"}, "[12]": {"molecular_target": "5-hydroxytryptamine receptor 1D (Homo sapiens) (UniProt P28221)", "sequence (P28221 whole entry)": "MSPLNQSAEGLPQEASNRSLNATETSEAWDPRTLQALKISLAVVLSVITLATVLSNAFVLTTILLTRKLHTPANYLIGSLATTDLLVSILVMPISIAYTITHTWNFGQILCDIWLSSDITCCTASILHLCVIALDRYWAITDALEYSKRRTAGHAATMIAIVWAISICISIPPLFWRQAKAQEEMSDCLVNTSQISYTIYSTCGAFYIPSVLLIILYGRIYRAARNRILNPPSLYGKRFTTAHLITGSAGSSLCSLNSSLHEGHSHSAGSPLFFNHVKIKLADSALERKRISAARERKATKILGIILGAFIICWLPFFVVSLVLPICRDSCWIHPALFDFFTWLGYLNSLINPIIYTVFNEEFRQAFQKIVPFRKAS", "assay": "Inhibition of 5-HT1D receptor at 10 uM by CEREP assay"}, "[13]": {"molecular_target": "5-hydroxytryptamine receptor 4 (Homo sapiens) (UniProt Q13639)", "assay": "Inhibition of human 5-HT4 receptor at 10 uM by CEREP assay"}, "[14]": {"molecular_target": "5-hydroxytryptamine receptor 5A (Homo sapiens) (UniProt P47898)", "sequence (P47898 whole entry)": "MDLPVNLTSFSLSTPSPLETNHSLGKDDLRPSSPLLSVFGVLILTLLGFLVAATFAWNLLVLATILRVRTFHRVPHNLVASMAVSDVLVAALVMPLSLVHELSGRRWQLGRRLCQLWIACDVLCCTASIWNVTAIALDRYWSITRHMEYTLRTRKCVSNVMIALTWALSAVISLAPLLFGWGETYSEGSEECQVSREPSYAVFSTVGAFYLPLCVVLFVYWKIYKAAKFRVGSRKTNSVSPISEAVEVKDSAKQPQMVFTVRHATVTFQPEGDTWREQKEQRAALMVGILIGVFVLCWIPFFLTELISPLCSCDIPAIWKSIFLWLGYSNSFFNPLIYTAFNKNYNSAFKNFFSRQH", "assay": "Inhibition of human 5-HT5A receptor at 10 uM by CEREP assay"}, "[15]": {"molecular_target": "5-hydroxytryptamine receptor 6 (Homo sapiens) (UniProt P50406)", "assay": "Inhibition of human 5-HT6 receptor at 10 uM by CEREP assay"}, "[16]": {"molecular_target": "Vasopressin V1a receptor (Homo sapiens) (UniProt P37288)", "sequence (P37288 whole entry, looked up)": "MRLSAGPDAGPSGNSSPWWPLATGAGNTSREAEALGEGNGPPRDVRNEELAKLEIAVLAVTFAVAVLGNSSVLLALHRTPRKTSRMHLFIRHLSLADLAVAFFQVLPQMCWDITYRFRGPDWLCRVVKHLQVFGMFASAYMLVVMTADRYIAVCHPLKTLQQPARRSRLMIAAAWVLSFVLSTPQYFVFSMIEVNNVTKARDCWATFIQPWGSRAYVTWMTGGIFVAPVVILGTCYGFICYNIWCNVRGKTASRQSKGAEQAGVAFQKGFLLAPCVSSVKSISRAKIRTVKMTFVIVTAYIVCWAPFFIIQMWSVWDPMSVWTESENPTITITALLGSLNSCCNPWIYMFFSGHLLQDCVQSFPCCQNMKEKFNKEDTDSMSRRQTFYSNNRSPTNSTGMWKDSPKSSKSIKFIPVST", "assay": "Inhibition of human V1a receptor at 10 uM by CEREP assay"}, "[17]": {"assay": "Inhibition of L-type Ca2+ channel DHP site at 10 uM by CEREP assay"}, "[18]": {"assay": "Inhibition of L-type Ca2+ channel verapamil site at 10 uM by CEREP assay"}, "[19]": {"assay": "Inhibition of K+v channel at 10 uM by CEREP assay"}, "[20]": {"assay": "Inhibition of SKca channel at 10 uM by CEREP assay"}, "[21]": {"assay": "Inhibition of Na+ channel site 2 at 10 uM by CEREP assay"}, "[22]": {"assay": "Inhibition of Cl- channel at 10 uM by CEREP assay"}, "[23]": {"organism": "Homo sapiens", "assay": "Inhibition of human Choline transporter at 10 uM by CEREP assay"}, "[24]": {"molecular_target": "Phosphodiesterase 3 (Homo sapiens) (UniProt Q14432+Q13370)", "assay": "Inhibition of human PDE3 at 10 uM by CEREP assay", "format": "protein assay"}, "[25]": {"molecular_target": "Acetylcholinesterase (Homo sapiens) (UniProt P22303)", "assay": "Inhibition of human Acetylcholinesterase at 10 uM by CEREP assay"}, "[26]": {"molecular_target": "Catechol O-methyltransferase (Homo sapiens) (UniProt P21964)", "sequence (P21964 whole entry)": "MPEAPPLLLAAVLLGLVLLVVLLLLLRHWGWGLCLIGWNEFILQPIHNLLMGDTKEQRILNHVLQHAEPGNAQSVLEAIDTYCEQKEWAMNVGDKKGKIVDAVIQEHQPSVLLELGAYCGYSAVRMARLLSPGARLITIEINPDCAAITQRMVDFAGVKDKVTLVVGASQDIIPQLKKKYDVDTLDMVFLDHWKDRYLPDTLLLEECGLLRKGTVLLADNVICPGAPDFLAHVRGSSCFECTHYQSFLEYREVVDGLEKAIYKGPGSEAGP", "assay": "Inhibition of COMT at 10 uM by CEREP assay"}, "[27]": {"molecular_target": "MAO-A (amine oxidase [flavin-containing] A) (Homo sapiens, UniProt P21397)", "sequence (P21397 whole entry)": "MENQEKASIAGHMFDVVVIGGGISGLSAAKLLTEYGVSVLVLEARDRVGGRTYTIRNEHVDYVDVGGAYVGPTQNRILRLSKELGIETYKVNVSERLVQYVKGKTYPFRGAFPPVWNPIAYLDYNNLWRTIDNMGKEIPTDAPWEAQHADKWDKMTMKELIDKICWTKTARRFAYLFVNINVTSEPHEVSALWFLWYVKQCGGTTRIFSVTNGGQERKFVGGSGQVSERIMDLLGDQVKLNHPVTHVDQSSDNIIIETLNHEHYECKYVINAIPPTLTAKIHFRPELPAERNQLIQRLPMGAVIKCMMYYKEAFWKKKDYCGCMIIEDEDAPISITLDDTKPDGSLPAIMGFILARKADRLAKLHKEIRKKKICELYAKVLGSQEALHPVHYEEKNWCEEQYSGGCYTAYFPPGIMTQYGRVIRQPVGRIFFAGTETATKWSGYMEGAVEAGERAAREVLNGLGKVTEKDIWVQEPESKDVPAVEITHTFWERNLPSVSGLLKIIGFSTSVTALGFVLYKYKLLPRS", "assay": "Inhibition of human MAO-A at 10 uM by CEREP assay"}, "[28]": {"molecular_target": "MAO-B (amine oxidase [flavin-containing] B) (Homo sapiens, UniProt P27338)", "sequence (P27338 whole entry)": "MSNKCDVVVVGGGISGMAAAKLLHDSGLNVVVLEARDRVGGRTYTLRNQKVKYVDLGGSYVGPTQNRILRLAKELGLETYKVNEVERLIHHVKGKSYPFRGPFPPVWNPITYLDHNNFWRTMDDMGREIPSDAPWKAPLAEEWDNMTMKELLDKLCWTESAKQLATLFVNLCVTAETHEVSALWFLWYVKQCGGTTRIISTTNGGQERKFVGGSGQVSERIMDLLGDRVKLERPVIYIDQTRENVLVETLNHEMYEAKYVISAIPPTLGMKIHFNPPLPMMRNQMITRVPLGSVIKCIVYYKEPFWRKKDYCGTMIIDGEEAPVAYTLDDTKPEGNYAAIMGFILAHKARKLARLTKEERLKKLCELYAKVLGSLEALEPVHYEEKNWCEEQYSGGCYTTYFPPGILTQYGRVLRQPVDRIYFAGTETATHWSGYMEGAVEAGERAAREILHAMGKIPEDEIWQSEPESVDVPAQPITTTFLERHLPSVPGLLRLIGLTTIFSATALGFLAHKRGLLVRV", "assay": "Inhibition of human MAO-B at 10 uM by CEREP assay"}, "[29]": {"assay": "Inhibition of Adenylyl cyclase at 10 uM by CEREP assay"}, "[30]": {"assay": "Inhibition of Guanylyl cyclase at 10 uM by CEREP assay"}, "[31]": {"molecular_target": "T1, Trace amine-associated receptor 1 (Homo sapiens, UniProt Q96RJ0)", "T1 sequence (Q96RJ0 whole entry)": "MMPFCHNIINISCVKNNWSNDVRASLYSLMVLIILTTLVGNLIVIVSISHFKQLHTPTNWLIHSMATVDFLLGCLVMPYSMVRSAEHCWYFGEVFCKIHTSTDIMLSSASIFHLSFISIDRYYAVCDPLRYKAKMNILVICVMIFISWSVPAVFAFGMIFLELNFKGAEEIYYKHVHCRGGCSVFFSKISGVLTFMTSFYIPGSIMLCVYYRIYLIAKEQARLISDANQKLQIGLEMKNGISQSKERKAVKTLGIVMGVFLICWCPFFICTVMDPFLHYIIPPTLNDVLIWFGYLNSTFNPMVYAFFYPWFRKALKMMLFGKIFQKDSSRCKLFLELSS", "assay": "Displacement of (S)-4-(2,4-difluorophenyl-3-tritio) -4,5-dihydro-2-oxazolamine from human TAAR1 receptor expressed in HEK293 cells after 90 mins by beta counting analysis", "format": "cell-based"}, "[32]": {"assay": "Oral bioavailability in mouse at 7.1 mg/kg", "format": "ADME, organism-based", "details": "in vivo"}, "[33]": {"assay": "Half life in rat at 10 mg/kg, po", "format": "ADME, organism-based", "set-up": "dose 10 mg/kg, route oral", "details": "in vivo"}, "[34]": {"molecular_target": "D(3) dopamine receptor (Homo sapiens) (UniProt P35462)", "assay": "Inhibition of human D3 receptor at 10 uM by CEREP assay"}, "[35]": {"molecular_target": "D(4) dopamine receptor (Homo sapiens) (UniProt P21917)", "assay": "Inhibition of human D4.4 receptor at 10 uM by CEREP assay"}, "[36]": {"molecular_target": "Cholecystokinin receptor type A (Homo sapiens) (UniProt P32238)", "sequence (P32238 whole entry)": "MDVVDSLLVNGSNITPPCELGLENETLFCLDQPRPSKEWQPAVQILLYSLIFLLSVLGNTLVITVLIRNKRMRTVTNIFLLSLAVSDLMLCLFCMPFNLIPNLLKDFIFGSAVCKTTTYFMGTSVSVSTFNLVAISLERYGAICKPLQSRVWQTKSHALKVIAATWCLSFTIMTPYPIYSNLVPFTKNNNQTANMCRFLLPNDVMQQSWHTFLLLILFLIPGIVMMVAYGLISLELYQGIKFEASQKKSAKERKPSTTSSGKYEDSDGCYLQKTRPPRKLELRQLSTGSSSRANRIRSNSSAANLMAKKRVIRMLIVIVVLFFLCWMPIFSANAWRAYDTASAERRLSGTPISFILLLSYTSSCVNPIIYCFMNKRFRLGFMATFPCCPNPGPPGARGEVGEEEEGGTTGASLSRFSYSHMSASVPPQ", "assay": "Inhibition of human CCKA receptor at 10 uM by CEREP assay"}, "[37]": {"assay": "Inhibition of central BZD receptor at 10 uM by CEREP assay"}, "[38]": {"molecular_target": "Type-2 angiotensin II receptor (Homo sapiens) (UniProt P50052)", "assay": "Inhibition of human AT2 receptor at 10 uM by CEREP assay"}, "[39]": {"molecular_target": "Beta-2 adrenergic receptor (Homo sapiens) (UniProt P07550)", "assay": "Inhibition of human beta 2 adrenergic receptor at 10 uM by CEREP assay"}, "[40]": {"assay": "Inhibition of alpha 1 adrenergic receptor at 10 uM by CEREP assay"}, "[41]": {"molecular_target": "Adenosine receptor A3 (Homo sapiens) (UniProt P0DMS8)", "assay": "Inhibition of human A3 receptor at 10 uM by CEREP assay"}, "[42]": {"molecular_target": "Glutamate [NMDA] receptor (Homo sapiens) (UniProt Q05586+Q12879+Q13224+O15399+O60391+Q14957+Q8TCU5)", "assay": "Inhibition of human NMDA receptor at 10 uM by CEREP assay"}},
  "data": [
    {"smiles": "CCc1cccc(CC)c1Cc1ncc[nH]1", "values": [
      {"measurement": "inhibition", "setting": "[1]", "result": 11, "unit": "%"},
      {"measurement": "inhibition", "setting": "[2]", "result": -1, "unit": "%"},
      {"measurement": "inhibition", "setting": "[3]", "result": 1, "unit": "%"},
      {"measurement": "inhibition", "setting": "[4]", "result": 59, "unit": "%"},
      {"measurement": "inhibition", "setting": "[5]", "result": 4, "unit": "%"},
      {"measurement": "inhibition", "setting": "[6]", "result": 3, "unit": "%"},
      {"measurement": "inhibition", "setting": "[7]", "result": 19, "unit": "%"},
      {"measurement": "inhibition", "setting": "[8]", "result": -7, "unit": "%"},
      {"measurement": "inhibition", "setting": "[9]", "result": 7, "unit": "%"},
      {"measurement": "inhibition", "setting": "[10]", "result": 1, "unit": "%"},
      {"measurement": "inhibition", "setting": "[11]", "result": 96, "unit": "%"},
      {"measurement": "inhibition", "setting": "[12]", "result": 19, "unit": "%"},
      {"measurement": "inhibition", "setting": "[13]", "result": 8, "unit": "%"},
      {"measurement": "inhibition", "setting": "[14]", "result": 20, "unit": "%"},
      {"measurement": "inhibition", "setting": "[15]", "result": 9, "unit": "%"},
      {"measurement": "inhibition", "setting": "[16]", "result": 1, "unit": "%"},
      {"measurement": "inhibition", "setting": "[17]", "result": 1, "unit": "%"},
      {"measurement": "inhibition", "setting": "[18]", "result": 10, "unit": "%"},
      {"measurement": "inhibition", "setting": "[19]", "result": -1, "unit": "%"},
      {"measurement": "inhibition", "setting": "[20]", "result": 0, "unit": "%"},
      {"measurement": "inhibition", "setting": "[21]", "result": 22, "unit": "%"},
      {"measurement": "inhibition", "setting": "[22]", "result": 3, "unit": "%"},
      {"measurement": "inhibition", "setting": "[23]", "result": 23, "unit": "%"},
      {"measurement": "inhibition", "setting": "[24]", "result": -5, "unit": "%"},
      {"measurement": "inhibition", "setting": "[25]", "result": 17, "unit": "%"},
      {"measurement": "inhibition", "setting": "[26]", "result": 3, "unit": "%"},
      {"measurement": "inhibition at 10 µM", "setting": "[27]", "result": -4, "unit": "%"},
      {"measurement": "inhibition at 10 µM", "setting": "[28]", "result": 0, "unit": "%"},
      {"measurement": "inhibition", "setting": "[29]", "result": 2, "unit": "%"},
      {"measurement": "inhibition", "setting": "[30]", "result": 1, "unit": "%"},
      {"measurement": "Ki", "setting": "[31]", "result": 24, "unit": "nM"},
      {"measurement": "bioavailability", "setting": "[32]", "result": 21, "unit": "%"},
      {"measurement": "half-life", "setting": "[33]", "result": 4.9, "unit": "h"},
      {"measurement": "inhibition", "setting": "[34]", "result": 10, "unit": "%"},
      {"measurement": "inhibition", "setting": "[35]", "result": -3, "unit": "%"},
      {"measurement": "inhibition", "setting": "[36]", "result": 4, "unit": "%"},
      {"measurement": "inhibition", "setting": "[37]", "result": 19, "unit": "%"},
      {"measurement": "inhibition", "setting": "[38]", "result": -3, "unit": "%"},
      {"measurement": "inhibition", "setting": "[39]", "result": 6, "unit": "%"},
      {"measurement": "inhibition", "setting": "[40]", "result": 23, "unit": "%"},
      {"measurement": "inhibition", "setting": "[41]", "result": 2, "unit": "%"},
      {"measurement": "inhibition", "setting": "[42]", "result": 2, "unit": "%"}
    ]}
  ]
}
